{
  "source": "patent US20250082781A1",
  "about": "“METHODS OF LOWERING BLOOD GLUCOSE AND TREATING TYPE 2 DIABETES BY ACTIVATION OF PDE4D3” (Salk Institute for Biological Studies, priority 2021, published 2025)",
  "key": {"[1]": {"tested_on": "serum FFA levels", "test": "Serum FFA levels in DIO mice", "format": "in vivo, mouse", "details": "FGF1 0.5 mg/kg s.c.", "description": "Mice were kept in 12 h light/dark cycle in a temperature-controlled environment. Mice had free access to food and water unless noted otherwise. C57/B6 mice background was used unless noted otherwise. C57BL/6J and ob/ob (000632-B6. Cg-Lepob/J) male mice were obtained from Jackson Laboratory. PDE4D knock-out mice (034588-UCD) were obtained from MMRRC. For diet-induced obesity (DIO) studies, mice were fed a high fat diet (HFD) (60% fat, F3282; Bio-Serv) for minimum of 12 weeks to induce insulin resistance when diet-induced obese model is used. Insulin levels and blood glucose levels were monitored to confirm insulin resistance. To generate adipose-specific FGFR1 deletion, adiponectin-cre mice (B6; FVB-Tg (Adipoq-cre)1Evdr/J; Stock: 010803) were crossed to Fgfr1 flox/flox (B6.129S4-Fgfr1tm5.1Sor/J; Stock: 00767) mice. For AAV mediated expression of target proteins in adipose tissue, 5×10E+11 genomic copies of AAV were injected via tail vein or retro-orbital route.\nRecombinant FGF1 (rFGF1) was dissolved in phosphate-buffered saline (PBS) at a concentration of 0.2 mg/ml and was injected subcutaneously at a 0.5 mg kg^−1 dose. Blood glucose was monitored at indicated time points after injection. For initial measurements (2-4 h) food was removed after injection to exclude any indirect effects stemming from anorexigenic effects of FGF1. PDE4 inhibitor roflumilast stock in DMSO was diluted at 1 mg/ml in 30% captisol, pH 10 and delivered to mice thorough oral gavage at 5 mg kg^−1 dose. PDE3 inhibitor cilostamide stock in DMSO was diluted at 2 mg/ml in 30% captisol and delivered through intraperitoneal injection at 10 mg kg^−1 dose."}, "[2]": {"tested_on": "oleic acid turnover", "test": "3H-labeled oleic acid turnover (in vivo lipolysis)", "set-up": "species or system mouse", "description": "FIGS. 1A-1I: FGF1 suppresses adipose lipolysis. (FIG. 1A) Ex-vivo lipolysis in gonadal white adipose tissue (gWAT) explants from wildtype (F1WT) and FGF1 KO (FIKO) mice 6 h after refeeding. Data are represented as mean±SEM (n=4, *p<0.05). (FIG. 1B) Lipolysis in mouse SVF-derived adipocytes measured by the cumulative release of free fatty acids (FFAs) into the media over 4 h. Cells were pretreated with vehicle (PBS) or FGF1 (100 ng/ml) for 10 min prior to the induction of lipolysis with 1 nM isoproterenol (ISO). Data are represented as mean±SEM (n=3, *p<0.05, **p<0.01). (FIG. 1C) Dose response of FGF1-induced suppression of lipolysis in 3T3-L1 adipocytes. Cells were pretreated with the indicated doses of FGF1 for 10 min prior to the induction of lipolysis with 100 nM isoproterenol (ISO), and the cumulative release of FFAs over 4 h was measured. Data are represented as mean±SEM (n=3, **p<0.01, ***p<0.001). […] Plasma radioactivity was measured by scintillation counting and normalized to t=1 min. Fractional oleic acid turnover rate was calculated by linear regression of natural log transformed data (adR1WT vehicle n=5, FGF1 n=4; adR1KO vehicle n=4, FGF1 n=5). […] Quantification of pHSL-S660 normalized to total HSL is shown in the right panel. […] Quantification of pHSL-S660 normalized to total HSL (right panel). […]"}},
  "data": [
    {"substance": "FGF1: Recombinant fibroblast growth factor 1 protein, dissolved in PBS, injected subcutaneously", "values": [
      {"measurement": "serum FFA levels", "setting": "[1]; overnight fasted DIO adR1KO mice", "result": "failed to affect adR1KO mice"},
      {"measurement": "reduction of serum FFA levels", "setting": "[1]; overnight fasted DIO adR1WT mice, 30 min", "result": "~30", "unit": "%"},
      {"measurement": "oleic acid turnover", "setting": "[2]; adR1KO mice, FGF1 pretreatment", "result": "not affected"},
      {"measurement": "fractional turnover rate of oleic acid", "setting": "[2]; adR1WT mice, FGF1 0.5 mg/kg s.c. 6 h before infusion", "result": "reduced"}
    ]}
  ]
}
